According to the NIST ThermoML archive (doi:10.1016/j.jct.2012.06.031):

Assays:
[1] = refractive index (Na D-line) (dimensionless); xn = mol fraction of the nth substance listed; details: 101 kPa, Liquid, Standard Abbe refractometry
[2] = xn = mol fraction of the nth substance listed; details: 101 kPa, Liquid; for viscosity: Concentric cylinders viscometry; for mass density: Vibrating tube method
[3] = refractive index (Na D-line) (dimensionless); details: 101.33 kPa, Liquid, Standard Abbe refractometry
[4] = 101 kPa, Liquid; for viscosity: Concentric cylinders viscometry; for mass density: Vibrating tube method

c1ccncc1 [pyridine] + OCCCO
x1 = 1
Details	mass density, [2] [kg/m3]	refractive index, [1]	viscosity, [2] [mPa·s]
288.15 K	988.061	1.51184	1.03
293.15 K	983.038	1.509	0.9588
298.15 K	978.006	1.50616	0.8943
303.15 K	972.967	1.50331	0.8355
308.15 K	967.913	1.50048	0.7837
313.15 K	962.849	1.49769	0.7354
318.15 K	957.769	1.49493	0.6912
323.15 K	952.673	1.49219	0.6507

c1ccncc1 [pyridine] + CC(O)CO
x1 = 1
Details	mass density, [2] [kg/m3]	refractive index, [1]	viscosity, [2] [mPa·s]
288.15 K	988.061	1.51184	1.03
293.15 K	983.038	1.509	0.9588
298.15 K	978.006	1.50616	0.8943
303.15 K	972.967	1.50331	0.8355
308.15 K	967.913	1.50048	0.7837
313.15 K	962.849	1.49769	0.7354
318.15 K	957.769	1.49493	0.6912
323.15 K	952.673	1.49219	0.6507

OCC(O)CO [glycerol] + c1ccncc1
x2 = 0
Details	mass density, [2] [kg/m3]	refractive index, [1]	viscosity, [2] [mPa·s]
288.15 K	1264.08	1.47552	2298.3
293.15 K	1261.03	1.47427	1425.1
298.15 K	1257.94	1.47301	911.98
303.15 K	1254.83	1.47175	600.83
308.15 K	1251.68	1.47048	406.93
313.15 K	1248.48	1.4692	282.61
318.15 K	1245.24	1.46791	201.03
323.15 K	1242.08	1.46674	147.15

CCCO [propan-1-ol]
Details	mass density, [4] [kg/m3]	refractive index, [3]	viscosity, [4] [mPa·s]
288.15 K	807.947	1.3878	2.514
293.15 K	803.963	1.38576	2.208
298.15 K	799.953	1.38369	1.95
303.15 K	795.915	1.38162	1.727
308.15 K	791.84	1.37918	1.542
313.15 K	787.721	1.37695	1.378
318.15 K	783.553	1.37469	1.236
323.15 K	779.334	1.37231	1.124
